Measured values: the supplement of paper PMC4932681
Structures can show the parent of a compound that is named as a salt.

How the values were obtained:
[1] = system: MCF-7 Tam1; experiment: relative IC50 (midpoint of fitted logistic curve, plateau may be below 50% inhibition; CellTiter-Glo viability); higher = less potent; conditions: 4-OH-tamoxifen in medium 1 µM; 72 h
Outline: (§1)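 CellTiter-Glo viability was the readout, taken on a PHERAstar and normalised to vehicle-only and positive controls. It was measured after breast cancer cell lines and their resistant derivatives spent 72 h at 37 °C in 384-well plates containing library drugs at five concentrations spanning a 10 000-fold range, with 1 μM of the selecting drug in the medium of resistant lines. From logistic dose–response fits in the Breeze pipeline came drug sensitivity score, relative IC50 (curve midpoint) and top-dose inhibition.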

[2] = system: T-47D Tam2; experiment: as above; conditions: 4-OH-tamoxifen in medium 1 µM; 72 h
Outline: as §1

[3] = system: ZR-75-1 Tam2; experiment: as above; conditions: 4-OH-tamoxifen in medium 1 µM; 72 h
Outline: as §1

[4] = system: BT-474; experiment: as above; conditions: 72 h
Outline: as §1

[5] = system: T-47D Tam1; experiment: as above; conditions: 4-OH-tamoxifen in medium 1 µM; 72 h
Outline: as §1

[6] = system: ZR-75-1; experiment: as above; conditions: 72 h
Outline: as §1

[7] = system: T-47D; experiment: as above; conditions: 72 h
Outline: as §1

[8] = system: ZR-75-1 Tam1; experiment: as above; conditions: 4-OH-tamoxifen in medium 1 µM; 72 h
Outline: as §1

[9] = system: MCF-7; experiment: as above; conditions: 72 h
Outline: as §1

[10] = system: MCF-7 Tam1; experiment: drug sensitivity score (DSS) (DSS (dimensionless)); higher = more sensitive; extreme values may be limits of the assay; conditions: 4-OH-tamoxifen in medium 1 µM; 72 h
Outline: as §1

[11] = system: BT-474 Tam2; experiment: as above; conditions: 4-OH-tamoxifen in medium 1 µM; 72 h
Outline: as §1

[12] = system: T-47D Tam2; experiment: as above; conditions: 4-OH-tamoxifen in medium 1 µM; 72 h
Outline: as §1

[13] = system: ZR-75-1 Tam2; experiment: as above; conditions: 4-OH-tamoxifen in medium 1 µM; 72 h
Outline: as §1

[14] = system: BT-474; experiment: as above; conditions: 72 h
Outline: as §1

[15] = system: T-47D Tam1; experiment: as above; conditions: 4-OH-tamoxifen in medium 1 µM; 72 h
Outline: as §1

[16] = system: ZR-75-1; experiment: as above; conditions: 72 h
Outline: as §1

[17] = system: BT-474 Tam1; experiment: as above; conditions: 4-OH-tamoxifen in medium 1 µM; 72 h
Outline: as §1

[18] = system: T-47D; experiment: as above; conditions: 72 h
Outline: as §1

[19] = system: ZR-75-1 Tam1; experiment: as above; conditions: 4-OH-tamoxifen in medium 1 µM; 72 h
Outline: as §1

[20] = system: MCF-7; experiment: as above; conditions: 72 h
Outline: as §1

[21] = system: BT-474 Tam2; experiment: relative IC50 (midpoint of fitted logistic curve, plateau may be below 50% inhibition; CellTiter-Glo viability); higher = less potent; conditions: 4-OH-tamoxifen in medium 1 µM; 72 h
Outline: as §1

[22] = system: BT-474 Tam1; experiment: as above; conditions: 4-OH-tamoxifen in medium 1 µM; 72 h
Outline: as §1

| Compound | relative IC50 [1] [µM] | relative IC50 [2] [µM] | relative IC50 [3] [µM] | relative IC50 ([4]; 4-OH-tamoxifen in medium 0 µM) [µM] | relative IC50 ([4]; 4-OH-tamoxifen in medium 1 µM) [µM] | relative IC50 [5] [µM] | relative IC50 ([6]; 4-OH-tamoxifen in medium 0 µM) [µM] | relative IC50 ([6]; 4-OH-tamoxifen in medium 1 µM) [µM] | relative IC50 ([7]; 4-OH-tamoxifen in medium 0 µM) [µM] | relative IC50 [8] [µM] | relative IC50 ([9]; 4-OH-tamoxifen in medium 0 µM) [µM] | drug sensitivity score [10] | drug sensitivity score [11] | drug sensitivity score [12] | drug sensitivity score [13] | drug sensitivity score ([14]; 4-OH-tamoxifen in medium 0 µM) | drug sensitivity score ([14]; 4-OH-tamoxifen in medium 1 µM) | drug sensitivity score [15] | drug sensitivity score ([16]; 4-OH-tamoxifen in medium 0 µM) | drug sensitivity score ([16]; 4-OH-tamoxifen in medium 1 µM) | drug sensitivity score [17] | drug sensitivity score ([18]; 4-OH-tamoxifen in medium 0 µM) | drug sensitivity score ([18]; 4-OH-tamoxifen in medium 1 µM) | drug sensitivity score [19] | drug sensitivity score ([20]; 4-OH-tamoxifen in medium 0 µM) | drug sensitivity score ([20]; 4-OH-tamoxifen in medium 1 µM) | relative IC50 [21] [µM] | relative IC50 ([7]; 4-OH-tamoxifen in medium 1 µM) [µM] | relative IC50 [22] [µM] | relative IC50 ([9]; 4-OH-tamoxifen in medium 1 µM) [µM] |
| --- | --- | --- | --- | --- | --- | --- | --- | --- | --- | --- | --- | --- | --- | --- | --- | --- | --- | --- | --- | --- | --- | --- | --- | --- | --- | --- | --- | --- | --- | --- |
| CNC(=O)c1ccc(N2C(=S)N(c3ccc(C#N)c(C(F)(F)F)c3)C(=O)C23CCC3)cc1F [RD162] | > 10 | > 10 | > 10 | > 10 | > 10 | > 10 | > 10 | > 10 | > 10 | > 10 | > 10 | 0 | 0.498 | 0 | 0 | 0 | 0 | 0 | 0 | 0 | 0.0464 | 0 | 0.215 | 0 | 0 | 1.42 | – | – | – | – |
| O=NN(CCCl)C(=O)NC1CCCCC1 [Lomustine] | > 10 | > 10 | > 10 | > 10 | > 10 | > 10 | > 10 | > 10 | > 10 | > 10 | – | 0 | 0 | 0 | 0 | 0 | 0 | 0 | 0 | 0 | 0 | 0 | 0 | 0 | 0.0319 | 0.0924 | > 10 | > 10 | – | – |
| S=P(N1CC1)(N1CC1)N1CC1 [Thio-TEPA] | > 100 | > 100 | > 100 | > 100 | > 100 | > 100 | > 100 | > 100 | > 100 | – | > 100 | 0 | 0 | 0 | 0 | 0 | 0 | 0 | 0 | 0 | 0 | 0 | 0 | 0.276 | 0 | 0 | > 100 | > 100 | > 100 | > 100 |
| CCN(CC)CCCC(C)Nc1ccnc2cc(Cl)ccc12 (stereo not drawn) [Chloroquine] | > 990 | > 990 | > 990 | > 990 | > 990 | > 990 | > 990 | > 990 | > 990 | > 990 | > 990 | 0 | 0.999 | 0 | 0 | 0 | 0 | 0 | 0 | 0 | 0.266 | 0 | 0 | 0 | 0 | 0 | – | > 990 | – | > 990 |
| Oc1ccc2c(c1)CC[C@H](c1ccccc1)[C@@H]2c1ccc(OCCN2CCCC2)cc1 [Lasofoxifene] | > 1 | > 1 | > 1 | > 1 | – | > 1 | > 1 | > 1 | > 1 | > 1 | – | 0 | 0.434 | 0 | 0 | 0 | 0.881 | 0 | 0 | 0 | 1.01 | 0 | 0 | 0 | 1.49 | 0.854 | – | > 1 | 0.449 | – |
| COC1=CC(c2cc3ccccc3[nH]2)=N/C1=C\c1[nH]c(C)cc1C [Obatoclax (GX15-070)] | 1.79 | 1.53 | 1.42 | 1.27 | – | 0.797 | 2.38 | 1.71 | 2.22 | – | 3.66 | 4.3 | 12.1 | 3.22 | 4.94 | 6.87 | 0.367 | 8.83 | 1.96 | 2.4 | 3.09 | 3.35 | 2.73 | 1.02 | 2 | 8.57 | 0.619 | 2.6 | 1.59 | 1.1 |
| Clc1ccc(Nc2nnc(Cc3ccncc3)c3ccccc23)cc1 [Vatalanib] | > 10 | > 10 | > 10 | > 10 | > 10 | > 10 | > 10 | > 10 | > 10 | > 10 | > 10 | 0 | 0.0042 | 0 | 0 | 0 | 0 | 0 | 0 | 0 | 0 | 0 | 0 | 0 | 0 | 0 | – | > 10 | – | > 10 |
| COc1cc(Nc2ncc(F)c(Nc3ccc4c(n3)N(COP(=O)(O)O)C(=O)C(C)(C)O4)n2)cc(OC)c1OC | 6.95 | 2.27 | 3.16 | > 10 | 2.92 | 1.43 | > 10 | – | 2.34 | – | 1.79 | 1.04 | 0 | 3.3 | 1.42 | 0 | 2.25 | 4.15 | 0 | 0.307 | 2.63 | 2.65 | 1.95 | 1.22 | 2.7 | 4.99 | > 10 | 2.89 | 3.56 | 2.36 |
| COc1cccc2c1C(=O)c1c(O)c3c(c(O)c1C2=O)C[C@@](O)(C(=O)CO)C[C@@H]3O[C@H]1C[C@H](N)[C@H](O)[C@H](C)O1 [Doxorubicin] | 0.387 | 0.3 | 0.144 | 0.374 | 0.424 | 0.171 | 0.199 | 0.214 | 0.154 | 0.286 | 0.247 | 2.46 | 0.115 | 4.23 | 7.21 | 3 | 3.73 | 6.83 | 4.96 | 6.3 | 2.96 | 6.88 | 3.36 | 4.65 | 5.29 | 3.47 | – | 0.396 | 0.399 | 0.331 |
| CC1(C)NC(=O)N(c2ccc([N+](=O)[O-])c(C(F)(F)F)c2)C1=O [Nilutamide] | > 10 | > 10 | > 10 | > 10 | > 10 | > 10 | > 10 | > 10 | > 10 | > 10 | > 10 | 0 | 0 | 0 | 0 | 0 | 0 | 0 | 0 | 0 | 0 | 0 | 0 | 0 | 0 | 0.145 | – | > 10 | > 10 | – |
| O=C(/C=C/c1cccnc1)NCCCCC1CCN(C(=O)c2ccccc2)CC1 [Daporinad (FK-866 HCl)] | > 1 | 0.0147 | > 1 | – | 0.0743 | 0.00387 | > 1 | > 1 | 0.00721 | > 1 | 0.019 | 0 | 1.29 | 18.9 | 0 | 0 | 8.73 | 27.2 | 0 | 0 | 5.63 | 24.1 | 20.7 | 0 | 15.8 | 10.4 | – | 0.0132 | 0.0943 | 0.0541 |
| CC[C@@H]1C(=O)OC[C@@H]1Cc1cncn1C [Pilocarpine] | > 40 | > 40 | > 40 | > 40 | > 40 | > 40 | > 40 | > 40 | > 40 | > 40 | > 40 | 0 | 0 | 0 | 0 | 0 | 0 | 0 | 0 | 0 | 0 | 0 | 0 | 0 | 0 | 0 | – | > 40 | > 40 | > 40 |
| O=C(Nc1c[nH]nc1-c1nc2ccc(CN3CCOCC3)cc2[nH]1)NC1CC1 [AT9283] | > 1 | > 1 | > 1 | > 1 | > 1 | > 1 | > 1 | > 1 | > 1 | > 1 | > 1 | 0 | 0 | 0 | 0 | 0 | 0 | 0 | 0 | 0 | 0 | 0 | 0 | 0 | 0 | 0 | – | > 1 | > 1 | > 1 |
| CN1CCC(COc2cnc(-c3cccc(Cn4nc(-c5cccc(C#N)c5)ccc4=O)c3)nc2)CC1 | > 1 | > 1 | > 1 | > 1 | > 1 | 0.314 | > 1 | > 1 | > 1 | > 1 | > 1 | 0 | 1.22 | 0 | 0 | 0 | 0 | 3.13 | 0 | 0 | 0 | 0 | 0 | 0 | 0 | 0.0353 | – | > 1 | > 1 | – |
| C[C@@]1(C(=O)Nc2ccc(F)nc2)CCCN1c1nc(Nc2cc(C3CC3)n[nH]2)c2cccn2n1 | 0.197 | 1.14 | > 10 | – | – | 1.16 | > 10 | > 10 | 0.921 | > 10 | 0.0789 | 13.2 | 0 | 6.16 | 0 | 0.215 | 0.473 | 4.88 | 0 | 0 | 0.49 | 5.37 | 7.74 | 0 | 17.7 | 21 | > 10 | 0.21 | – | 0.0802 |
